Among the data in patent US5663148A, “Anaphylatoxin receptor ligands containing lipophilic residues” (Abbott Laboratories, priority 1994, dated 1997) are Ki values, retold here.

pKi: −log10 of the molar value.

The target of this experiment is T1, C5a receptor (Homo sapiens, UniProt P21730).
T1 construct: from tissue; host or cells: polymorphonuclear leukocyte (PMNL) membrane fragments
T1 sequence (P21730 1-350): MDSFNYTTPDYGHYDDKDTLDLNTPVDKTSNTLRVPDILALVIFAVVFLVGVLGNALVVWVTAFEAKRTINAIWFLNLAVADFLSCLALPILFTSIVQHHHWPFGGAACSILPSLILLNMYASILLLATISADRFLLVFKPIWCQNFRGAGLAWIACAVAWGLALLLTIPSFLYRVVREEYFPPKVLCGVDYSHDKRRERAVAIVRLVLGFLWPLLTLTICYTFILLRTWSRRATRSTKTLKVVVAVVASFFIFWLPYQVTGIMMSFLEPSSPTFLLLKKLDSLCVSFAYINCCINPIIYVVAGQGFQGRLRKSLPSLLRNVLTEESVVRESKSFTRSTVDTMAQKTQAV
As to the kind of experiment: Anaphylatoxin (C5a) receptor binding Ki determination, 125I-C5a on PMNL membrane fragments. Conditions: read-out: Ki (In vitro C5a Receptor Binding Potency). As for the experimental part:
The membrane-bound radiolabeled C5a was separated from the free radiolabeled C5a by filtration, and the recovered gamma radioactivity was measured. […] Free and membrane-bound ligand were separated by filtration.
Regarding `CC(C)C[C@H](NC(=O)[C@@H]1CCCN1C(=O)[C@H](CC1CCCCC1)NC(=O)CCCCCN)C(=O)NC(CCCc1ccccc1)C(=O)N[C@@H](CCCNC(=N)N)C(=O)O` (mixture of isomers) [Example 11, N-(6-Aminohexanoyl)-{(2S)-2Amino-3-cyclohexylpropanoyl}-Prolyl-Leucyl-{(R/S)-2-Amino-5-phenylpentanoyl}-Arginyl-OH], the pKi was 5.44.
As for `CC(C)C[C@@H](C(=O)NC(CCCc1ccccc1)C(=O)N[C@@H](CCCNC(=N)N)C(=O)O)N(C)C(=O)CNC(=O)[C@H](CC1CCCCC1)NC(=O)CCCCCCN` (mixture of isomers) [Example 27, N-(7-Aminoheptanoyl)-{(2S)-2-Amino-3-cyclohexylpropanoyl}-Glycyl-Leucyl(N-methyl)-{(R/S)-2-Amino-5-phenylpentanoyl}-Arginyl-OH], the pKi was 6.35.
The value for `CC(C)C[C@H](NC(=O)CNC(=O)[C@H](CC1CCCCC1)NC(=O)CCCCCCN)C(=O)N(C)C(CCCc1ccccc1)C(=O)N[C@@H](CCCNC(=N)N)C(=O)O` (mixture of isomers) [Example 28] was 5.76; that for `CC(C)C[C@H](NC(=O)CCCc1c[nH]c2ccccc12)C(=O)NC(CCCc1ccccc1)C(=O)N[C@@H](CCCNC(=N)N)C(=O)O` (mixture of isomers) [Example 30, N-(Indole-3-butyryl)-Leucyl-{(R/S)-2-Amino-5-phenylpentanoyl}-Arginyl-OH] was 5.15; that for `N=C(N)NCCC[C@H](NC(=O)C(CCCc1ccccc1)NC(=O)[C@@H](Cc1ccccc1)NC(=O)CNC(=O)[C@H](CC1CCCCC1)NC(=O)CCCCCN)C(=O)O` (mixture of isomers) [Example 58, N-(6-Aminohexanoyl)-{(2S)-2-Amino-3-cyclohexylpropanoyl}-Glycyl-DPhenylalanyl-{(R/S)-2-Amino-5-phenylpentanoyl}-Arginyl-OH] was 5.19.
The value for `C[C@H](NC(=O)CNC(=O)[C@@H](N)CC1CCCCC1)C(=O)NC(CCCc1ccccc1)C(=O)N[C@@H](CCCNC(=N)N)C(=O)O` (mixture of isomers) [Example 59, H-{(2S)-2-Amino-3-cyclohexylpropanoyl}-Glycyl-Alanyl-{(±)-2-Amino-5-phenylpentanoyl}-Arginyl-OH] was 4.17.
The value for `CC(C)C[C@H](NC(=O)[C@@H](CCCCN)NC(=O)[C@@H](N)CC1CCCCC1)C(=O)NC(CCCc1ccccc1)C(=O)N[C@@H](CCCNC(=N)N)C(=O)O` (mixture of isomers) [Example 98, H-{(2S)-2-Amino-3-cyclohexylpropanoyl}-DLysyl-Leucyl-{(R/S)-2-Amino-5-phenylpentanoyl}-Arginyl-OH] was 4.35; that for `CC(C)C[C@H](NC(=O)CNC(=O)[C@H](CC1CCCCC1)NC(=O)CN(C)C(=O)CCCN)C(=O)NC(CCCc1ccccc1)C(=O)N[C@@H](CCCNC(=N)N)C(=O)O` (mixture of isomers) [Example 113, N-(gamma-Aminobutyryl)-Sarcrosinyl-{(2S)-2-Amino-3-cyclohexyl-propanoyl}-Glycyl-Leucyl-{(R/S)-2-Amino-5-phenylpentanoyl}-Arginyl-OH] was 6.06; that for `CC(C)C[C@H](NC(=O)[C@H](C)NC(=O)[C@H](CC1CCCCC1)NC(=O)[C@@H]1CCCN1C(=O)[C@H](C)NC(=O)[C@@H](N)Cc1ccccc1)C(=O)NC(CCCc1ccccc1)C(=O)N[C@@H](CCCNC(=N)N)C(=O)O` (mixture of isomers) [Example 143, H-Phenylalanyl-Alanyl-Prolyl-{(2S)-2-Amino-3-cyclohexylpropanoyl}-Alanyl-Leucyl-{(±)-2-Amino-5-phenylpentanoyl}-Arginyl-OH] was 7.27.
In the case of `CC(C)C[C@H](NC(=O)CNC(=O)[C@H](CC1CCCCC1)NC(=O)NCc1ccc(CN)cc1)C(=O)NC(CCCc1ccccc1)C(=O)N[C@@H](CCCNC(=N)N)C(=O)O` (mixture of isomers) [Example 145, N-[N-(4-Aminomethylbenzyl)aminocarbonyl]-{(2S)-2-Amino-3-cyclohexylpropanoyl}-Glycyl-Leucyl-{(R/S)-2-Amino-5-phenylpentanoyl}-Arginyl-OH], the pKi was 5.15.
The value for `CC(C)C[C@H](NC(=O)[C@H](C)NC(=O)[C@H](CC1CCCCC1)NC(=O)CNC(=O)CCCCCN)C(=O)NC(CCCc1ccccc1)C(=O)N[C@@H](CCCNC(=N)N)C(=O)O` (single isomer, unassigned) [Example 32] was 5.00; that for `CC(C)C[C@H](NC(=O)[C@H](C)NC(=O)[C@H](CC1CCCCC1)NC(=O)CNC(=O)CCCCCN)C(=O)NC(CCCc1ccccc1)C(=O)N[C@@H](CCCNC(=N)N)C(=O)O` (single isomer, unassigned) [Example 33] was 6.17.
The result for `CC(C)C[C@H](NC(=O)CNC(=O)[C@@H](CC1CCCCC1)NC(=O)CCCCCN)C(=O)NC(CCCc1ccccc1)C(=O)N[C@@H](CCCNC(=N)N)C(=O)O` (single isomer, unassigned) [Example 34] reads 4.67; that for `CC(C)C[C@H](NC(=O)CNC(=O)[C@@H](CC1CCCCC1)NC(=O)CCCCCN)C(=O)NC(CCCc1ccccc1)C(=O)N[C@@H](CCCNC(=N)N)C(=O)O` (single isomer, unassigned) [Example 35], 5.90.
The value for `CC(C)C[C@H](NC(=O)CNC(=O)[C@H](CC1CCCCC1)N(C)C(=O)CCCCN)C(=O)NC(CCCc1ccccc1)C(=O)N[C@@H](CCCNC(=N)N)C(=O)O` (single isomer, unassigned) [Example 36] was 5.01; that for `CC(C)C[C@H](NC(=O)CNC(=O)[C@H](CC1CCCCC1)N(C)C(=O)CCCCN)C(=O)NC(CCCc1ccccc1)C(=O)N[C@@H](CCCNC(=N)N)C(=O)O` (single isomer, unassigned) [Example 37] was 5.49.
On to `CSCC[C@H](NC(=O)[C@H](CC(=O)O)NC(=O)[C@@H](N)CCCCN)C(=O)N[C@@H](CCC(N)=O)C(=O)N[C@@H](CC(C)C)C(=O)NC(CCCc1ccccc1)C(=O)N[C@@H](CCCNC(=N)N)C(=O)O` (single isomer, unassigned) [Example 39, H-Lysyl-Aspartyl-Methionyl-Glutaminyl-Leucyl-{(R/S)-2-Amino-5-phenylpentanoyl}-Arginyl-OH], for which the pKi is 4.15.
The value for `CSCC[C@H](NC(=O)[C@H](CC(=O)O)NC(=O)[C@@H](N)CCCCN)C(=O)N[C@@H](CCC(N)=O)C(=O)N[C@@H](CC(C)C)C(=O)NC(CCCc1ccccc1)C(=O)N[C@@H](CCCNC(=N)N)C(=O)O` (single isomer, unassigned) [Example 40, H-Lysyl-Aspartyl-Methionyl-Glutaminyl-Leucyl-{(R/S)-2-Amino-5-phenylpentanoyl}-Arginyl-OH] was 5.96; that for `CC(C)C[C@H](NC(=O)CNC(=O)[C@H](CC1CCCCC1)NC(=O)[C@@H](N)CCCCN)C(=O)NC(CCCc1ccccc1)C(=O)N[C@@H](CCCNC(=N)N)C(=O)O` (single isomer, unassigned) [Example 41, H-Lysyl-{(2S)-2-Amino-3-cyclohexylpropanoyl}-Glycyl-Leucyl-{(R/S)-2-Amino-5-phenylpentanoyl}-Arginyl-OH] was 4.60.
The result for `CC(C)C[C@H](NC(=O)CNC(=O)[C@H](CC1CCCCC1)NC(=O)[C@@H](N)CCCCN)C(=O)NC(CCCc1ccccc1)C(=O)N[C@@H](CCCNC(=N)N)C(=O)O` (single isomer, unassigned) [Example 42, H-Lysyl-{(2S)-2-Amino-3-cyclohexylpropanoyl}-Glycyl-Leucyl-{(R/S)-2-Amino-5-phenylpentanoyl}-Arginyl-OH] reads 6.35; that for `CC(=O)N[C@@H](CC1CCCCC1)C(=O)NCC(=O)N[C@@H](CC(C)C)C(=O)NC(CCCc1ccccc1)C(=O)N[C@@H](CCCNC(=N)N)C(=O)O` (single isomer, unassigned) [Example 45], 5.12.
The result for `CC(=O)N[C@@H](CC1CCCCC1)C(=O)NCC(=O)N[C@@H](CC(C)C)C(=O)NC(CCCc1ccccc1)C(=O)N[C@@H](CCCNC(=N)N)C(=O)O` (single isomer, unassigned) [Example 46, N-Acetyl-{(2S)-2-Amino-3-cyclohexylpropanoyl}-Glycyl-Leucyl-{(R/S)-2-Amino-5-phenylpentanoyl}-Arginyl-OH] reads 4.66.
For `CC(C)C[C@H](NC(=O)[C@H](C)NC(=O)[C@H](CC1CCCCC1)NC(=O)[C@@H]1CCCN1C(=O)[C@H](CCCCN)NC(=O)CN)C(=O)NC(CCCc1ccccc1)C(=O)N[C@@H](CCCNC(=N)N)C(=O)O` (single isomer, unassigned) [Example 52], the pKi was 4.99.
As to `CC(C)C[C@H](NC(=O)[C@H](C)NC(=O)[C@H](CC1CCCCC1)NC(=O)[C@@H]1CCCN1C(=O)[C@H](CCCCN)NC(=O)CN)C(=O)NC(CCCc1ccccc1)C(=O)N[C@@H](CCCNC(=N)N)C(=O)O` (single isomer, unassigned) [Example 53, H-Glycyl-Lysyl-Prolyl-{(2S)-2-Amino-3-cyclohexylpropanoyl}-Alanyl-Leucyl-{(R/S)-2-Amino-5-phenylpentanoyl}-Arginyl-OH], the pKi is 7.00.
The value for `CC(C)C[C@H](NC(=O)CNC(=O)[C@H](CC1CCCCC1)NC(=O)[C@H](N)CCCCN)C(=O)NC(CCCc1ccccc1)C(=O)N[C@@H](CCCNC(=N)N)C(=O)O` (single isomer, unassigned) [Example 56] was 4.57.
The result for `CC(C)C[C@H](NC(=O)CNC(=O)[C@H](CC1CCCCC1)NC(=O)[C@H](N)CCCCN)C(=O)NC(CCCc1ccccc1)C(=O)N[C@@H](CCCNC(=N)N)C(=O)O` (single isomer, unassigned) [Example 57] reads 5.71.

The term pKi denotes the negative decadic logarithm of the Ki, by convention in mol/L.
